The values below come from ChEMBL document CHEMBL3603747, “Discovery, design, and synthesis of indole-based EZH2 inhibitors” (Bioorg Med Chem Lett, 2015).

What all share (type): ADME, organism-based
Data set [1] can be described thus: Volume of distribution at steady state in CB17 SCID mouse at 1 mg/kg, iv by LC-MS method. As to conditions: in vivo, read-out: Vdss.
Data set [2] in a line: AUC in CB17 SCID mouse at 1 mg/kg, iv by LC-MS method. As to conditions: in vivo.
Data set [3] can be described thus: Cmax in CB17 SCID mouse at 200 mg/kg, sc by LC-MS method. The arrangement: dose 200 mg/kg, route subcutaneous. As to conditions: in vivo.
Data set [4] is described as follows: AUC in CB17 SCID mouse at 200 mg/kg, sc by LC-MS method. The conditions noted are these: in vivo.

Take `CCS(=O)(=O)N1CCC([C@@H](C)n2c(C)c(C(=O)NCc3c(OC)cc(C)[nH]c3=O)c3ccccc32)CC1`: the Vd in data set [1] is 0.795 L/kg. Moreover, the AUC worked out at 362 ng·h/mL in data set [2] and 51000 ng·h/mL in data set [4]. The compound further gave a Cmax in data set [3] of 9150 ng/mL.
